The values below come from US11980689B2 (AVALYN PHARMA INC., priority 2013, dated 2024).

One data set has as its system cancer. To be noted: cited from earlier work.
Data set [1] relates to primary human fibroblasts. The data set is described as follows: PDGF-induced fibroblast proliferation (MTS assay). The settings on record: for Proliferation (relative proliferation), Short Duration / Proliferation (relative proliferation), Long Duration: 20 ng/mL PDGF-BB, 72 hours, MTS; for inhibiting PDGF-induced fibroblast proliferation (in words) / cytotoxicity of drug concentrations tested: 0.5 to 50 nM; for cytotoxicity of drug concentrations tested: data not shown; for IC50: read-out: fifty-percent inhibitory concentration (IC50), PDGF-induced fibroblast proliferation, short-term exposure. A general note: Tetrazolium assays rely on reduction of a dye to a coloured formazan, in cell work by metabolically active cells.

For data set [2], the system named is COL1A1-PDGFβ-transformed fibroblasts, DFSP and giant-cell fibrosarcoma cell cultures. To be noted: in vitro and in vivo; cited from earlier work.
A further data set deals with newly diagnosed CML. To be noted: cytogenetic and haematological response, time to progression; cited from earlier work.
Data set [3] relates to sol elastase of CF sputum. The settings on record: unprocessed CF sputum directly treated; cited from earlier work.
A further data set has as its target c-kit (Homo sapiens, UniProt P10721). The settings on record: cited from earlier work.
A further data set deals with SCLC. The settings on record: oral 600 mg daily up to 12 months; cited from earlier work.
Data set [4] has as its system bleomycin-induced pulmonary fibrosis. The settings on record: both agents from Days 14; cited from earlier work.
Another data set relates to lung fibroblasts. To be noted: 800 μg/ml of AGP, in vitro; cited from earlier work.
Data set [5] has as its target T1, purified human neutrophil elastase (Homo sapiens, UniProt P08246).
T1 sequence (P08246 30-247 limits assumed): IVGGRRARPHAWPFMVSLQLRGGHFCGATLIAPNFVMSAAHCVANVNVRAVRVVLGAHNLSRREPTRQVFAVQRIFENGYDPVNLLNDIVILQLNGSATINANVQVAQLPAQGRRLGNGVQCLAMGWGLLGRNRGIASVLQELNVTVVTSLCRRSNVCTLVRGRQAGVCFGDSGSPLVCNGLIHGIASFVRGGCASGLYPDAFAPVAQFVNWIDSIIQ
The settings on record: cited from earlier work.

For data set [6] the following is noted: intravenous; cited from earlier work.
In data set [7] the test system is relapsed/refractory multiple myeloma. To be noted: cited from earlier work.
[8] abbreviates: 0.5 nM drug 30 min pretreatment then washed.
Setting [9] is: 5.0 nM drug 30 min pretreatment then washed.
The mark [10] stands for this setting: 50.0 nM drug 30 min pretreatment then washed.
Setting [11] is: bortezomib 1.3 mg/m2 vs high-dose dexamethasone.

Counter-ions that a name gives are not always drawn. A value given as a limit tells only on which side of the number the result lay.

c-kit, sequence (P10721 26-976): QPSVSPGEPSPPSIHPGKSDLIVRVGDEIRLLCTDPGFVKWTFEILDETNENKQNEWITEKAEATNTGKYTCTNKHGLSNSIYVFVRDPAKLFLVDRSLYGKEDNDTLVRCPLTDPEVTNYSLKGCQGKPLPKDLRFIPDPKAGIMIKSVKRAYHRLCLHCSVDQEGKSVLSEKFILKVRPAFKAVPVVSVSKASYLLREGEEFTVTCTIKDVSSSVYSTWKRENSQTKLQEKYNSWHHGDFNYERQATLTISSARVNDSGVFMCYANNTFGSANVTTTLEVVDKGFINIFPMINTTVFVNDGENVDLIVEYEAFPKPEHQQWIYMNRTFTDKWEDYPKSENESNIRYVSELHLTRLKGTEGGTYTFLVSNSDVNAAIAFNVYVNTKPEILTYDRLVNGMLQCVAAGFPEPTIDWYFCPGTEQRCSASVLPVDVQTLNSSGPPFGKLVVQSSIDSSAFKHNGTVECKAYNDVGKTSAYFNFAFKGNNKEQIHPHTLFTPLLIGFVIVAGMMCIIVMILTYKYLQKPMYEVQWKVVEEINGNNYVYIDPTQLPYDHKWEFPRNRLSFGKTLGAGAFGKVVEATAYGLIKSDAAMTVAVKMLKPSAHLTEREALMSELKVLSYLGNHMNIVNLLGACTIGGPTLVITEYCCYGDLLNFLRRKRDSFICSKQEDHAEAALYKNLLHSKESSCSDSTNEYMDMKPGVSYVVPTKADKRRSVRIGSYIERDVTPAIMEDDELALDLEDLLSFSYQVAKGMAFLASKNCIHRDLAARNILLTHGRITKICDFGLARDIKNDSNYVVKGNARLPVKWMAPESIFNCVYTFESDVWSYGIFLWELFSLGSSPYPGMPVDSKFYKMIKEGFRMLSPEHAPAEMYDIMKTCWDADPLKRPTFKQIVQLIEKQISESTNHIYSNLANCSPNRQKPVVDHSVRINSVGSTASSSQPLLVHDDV

In the case of `N#CC1(c2ccc(NC(=O)c3cccnc3NCc3ccncc3)cc2)CCCC1` [Apatinib], in the data set with cancer (1000 mg/day), the dose limiting toxicities is given as 3 of 3. Moreover, in the data set with cancer (65 cancer patients, Phase I/II), the complete response is recorded as 1.54%, the partial response is on record as 12.31%, the progressive disease was 20% and the stable disease is 66.15%. For the same molecule, in the data set on cancer (human, in vivo), the maximum tolerated dose is on record as 850 mg/day.
With `COC(=O)c1ccc2c(c1)NC(=O)/C2=C(\Nc1ccc(N(C)C(=O)CN2CCN(C)CC2)cc1)c1ccccc1` [Vargatef], the entries for the “Proliferation (relative proliferation), Short Duration” value in data set [1] (setting [8]), in data set [1] (setting [9]) and in data set [1] (setting [10]) were 0.115, 0.011 and −0.175, respectively. The entries for the “Proliferation (relative proliferation), Long Duration” value in [1] (0.5 nM drug kept in media), in [1] (5.0 nM drug kept in media) and in data set [1] (50.0 nM drug kept in media) were 0.003, −0.359 and −0.642, respectively. Besides, the “inhibiting PDGF-induced fibroblast proliferation (in words)” value in data set [1] is recorded as “dose-responsive”. Also, the “cytotoxicity of drug concentrations tested” value in data set [1] is reported as “not cytotoxic”. Moreover, in data set [1], the IC50 is about 3 nM.
In the case of `Cc1ccc(NC(=O)c2ccc(CN3CCN(C)CC3)cc2)cc1Nc1nccc(-c2cccnc2)n1` [Glivec], the effect on cells result in [2] is listed as “inhibited”. The “efficacy vs interferon and low-dose cytarabine” value in the data set on newly diagnosed CML is recorded as “superior efficacy”.
As to DNase, the “increase of sol elastase activity” value in data set [3] is 190%.
As to `Cc1ccc(NC(=O)c2ccc(CN3CCN(C)CC3)cc2)cc1Nc1nccc(-c2cccnc2)n1` [imatinib mesylate], the “signal transduction cascade triggered by c-kit activation” value on c-kit is reported as “sufficiently blocked”. In the data set on SCLC, the antitumor activity result is recorded as “no observed antitumor activity”.
`CNC(=O)c1cc(Oc2ccc(NC(=O)Nc3ccc(Cl)c(C(F)(F)F)c3)cc2)ccn1` [Sorafinib, sorafinib]: the results for the “Proliferation (relative proliferation), Short Duration” value in data set [1] (setting [8]), in [1] (setting [9]) and in [1] (setting [10]) were 0.117, −0.010 and −0.147, respectively. The “Proliferation (relative proliferation), Long Duration” value in data set [1] (0.5 nM drug kept in media) is on record as 0.313; in [1] (5.0 nM drug kept in media), 0.175; in data set [1] (50.0 nM drug kept in media), 0.130. Moreover, the “inhibiting PDGF-induced fibroblast proliferation (in words)” value in data set [1] is given as “dose-responsive”. In [1], the “cytotoxicity of drug concentrations tested” value is recorded as “not cytotoxic”. For the same molecule, in data set [1], the IC50 was about 30 nM.
Take `CC[C@H]1OC(=O)[C@H](C)[C@@H](O[C@H]2C[C@@](C)(OC)[C@@H](O)[C@H](C)O2)[C@H](C)[C@@H](O[C@@H]2O[C@H](C)C[C@H](N(C)C)[C@H]2O)[C@](C)(O)C[C@@H](C)C(=O)[C@H](C)[C@@H](O)[C@]1(C)O` [erythromycin]: the “bleomycin-induced pulmonary fibrosis, combined use with imatinib” value in data set [4] is “attenuated”. Further, the “concentration required to abrogate the effects of AGP” value in the data set on lung fibroblasts is reported as “more than 1 μM”.
On to `O=C(O)CCCC[C@@H](S)CCS` (racemic) [DHLA, dihydrolipoic acid], for which the “inhibition of purified human neutrophil elastase (in words)” value in data set [5] is “inhibited”. In addition, the “increase of sol elastase activity” value in data set [3] was “did not increase”.
Turning to `CC(C)C[C@H](NC(=O)[C@H](Cc1ccccc1)NC(=O)c1cnccn1)B(O)O` [Bortezomib], in [6], the clearance entry is listed as “rapidly cleared” and the “time to peak concentrations” value is reported as “about 30 minutes”. Also, in data set [7] (setting [11]), the 1-year survival is 80% and the “median TTP” value is 6.2 months. For the same molecule, in [7] (human, in vivo), the “patients with peripheral neuropathy” value was 30%.
As to `CC[C@H]1OC(=O)[C@H](C)[C@@H](O[C@H]2C[C@@](C)(OC)[C@@H](O)[C@H](C)O2)[C@H](C)[C@@H](O[C@@H]2O[C@H](C)C[C@H](N(C)C)[C@H]2O)[C@](C)(OC)C[C@@H](C)C(=O)[C@H](C)[C@@H](O)[C@]1(C)O` [clarithromycin], the “bleomycin-induced pulmonary fibrosis, combined use with imatinib” value in data set [4] is “attenuated”. In addition, the “concentration required to abrogate the effects of AGP” value in the data set on lung fibroblasts is over 10 µM.

B1: reduced rhTrx: stable reduced form of recombinant human thioredoxin used as a single component (protein, UniProt P10599 2-105, looked up)
Thioredoxin: VKQIESKTAFQEALDAAGDKLVVVDFSATWCGPCKMIKPFFHSLSEKYSNVIFLEVDVDDCQDVASECEVKCMPTFQFFKKGQKVGEFSGANKEKLEATINELV
modifications: reduced form
With B1, the “inhibition of purified human neutrophil elastase (in words)” value in [5] is recorded as “inhibited”. For the same molecule, the “increase of sol elastase activity” value in [3] is listed as 60%.
